{"source": "paper PMC7083937", "about": "“The ribosome-associated complex RAC serves in a relay that directs nascent chains to Ssb” (Nature Communications, 2020)", "key": {"nascent Pgk1-100": {"tested_on": "nascent Pgk1-100", "experiment": "crosslinking to ribosome-bound nascent chain", "assay_type": "binding, Saccharomyces cerevisiae", "settings": "BS3", "excerpt": "(§1) DNA templates for transcription reactions were generated by PCR using pSPUTK-Pgk1[20] as a template. Reverse primers were designed such, that PCR products encoded different length PGK1 sequences, which all lacked a stop codon. The length of the resulting translation products, which remain ribosome-bound, is indicated in Results and Figure Legends. Transcripts were generated using SP6 polymerase (Thermo Fischer Scientific) as previously described. RNCs were generated via translation reactions primed with the stop codon-less transcripts at 20 °C in the presence of [^35S]-methionine (Hartmann-Analytic) for 80 min[20],[54]. Translation reactions were stopped by the addition of 50 µg/ml cycloheximide final concentration and subsequently RNCs were isolated via centrifugation at 400.000 g for 20 min in a TLA-100 or TLA-100.2 rotor (Beckman Coulter)[20].\n(§2) Chemical crosslinking of ribosome-bound nascent chains to Ssb, Zuo1, or Ssz1 was analyzed essentially as described. In brief, resuspended RNCs were incubated in the presence of 400 µM BS^3 (bis-(sulfosuccinimidyl)-suberate, spacer length 1.14 nm, Thermo Scientific) for 20 min on ice and crosslinking was then quenched by the addition of TRIS base (tris(hydroxymethyl)aminomethane) to a final concentration of 50 mM. Crosslinked protein samples were precipitated by the addition of TCA (final concentration 5%), pellets were collected by centrifugation and were dissolved in dissociation buffer (200 mM TRIS/HCl pH 7.5, 4% SDS; 10 mM EDTA, 100 µg/ml BSA, protease inhibitor mix, 1 mM PMSF). Totals shown in Figs. 1,3 and Supplementary Fig. 1 before (total) and after BS^3 crosslinking (total + BS^3) represent 5% of the dissolved material employed for immunoprecipitation reactions. The resulting denatured protein samples were used to identify crosslink products between Ssb, Zuo1, or Ssz1 and nascent chains via affinity purification under denaturing conditions. To that end, protein A sepharose beads (GE Healthcare) were pre-coated with antibodies directed against Ssb, Zuo1, or Ssz1 and subsequently the denatured crosslinked material was allowed to bind to the beads resuspended in immunoprecipitation buffer (10 mM TRIS/HCl pH 7.5, 150 mM NaCl, 5 mM EDTA, 1% Triton X-100, protease inhibitor mix, 0.5 mM PMSF)[20]. Crosslink products bound to protein A sepharose beads were released by addition of SDS-sample buffer at 95 °C for 10 min. Samples were analyzed on Tris-Tricine gels[56] followed by autoradiography. Loading was normalized according to the signal of [^35S]-labelled nascent Pgk1 in the total prior to crosslinking. Relative crosslinking efficiencies between nascent Pgk1-100 and Zuo1 or Ssz1, respectively were determined as follows. For each biological replicate, band intensities of non-crosslinked nascent Pgk1-100 and of Pgk1-100 crosslink products (XL-Zuo1 or XL-Ssz1) was determined on a single autoradiograph for wild type RAC and the different mutant variants of RAC. The crosslinking efficiency (XL-Zuo1/Pgk1-100 or XL-Ssz1/Pgk1-100) of each sample was calculated and subsequently the ratio of XL-Zuo1/Pgk1-100 or XL-Ssz1/Pgk1-100 in the presence of wild type RAC was set to 1 in order to normalize the biological replicates (see Fig. 3c,d). The original data are provided as a Source Data file.\nFor complementation experiments translation reactions were performed in either ∆ssb1∆ssb2 or ∆ssb1∆ssb2∆zuo1∆ssz1 translation extract as indicated. Complementation with purified Ssb1 was performed by adding His6-tagged ScSsb1 at a final concentration of 2 µM to the translation reaction prior to the addition of mRNA. Ribosome-free cytosolic extract of various mutant yeast strains for complementation experiments as indicated in Results and Figure Legends was generated as follows. The A260 of a total cell extract prepared by the glass beads method (see above) was determined, and the total cell extract was subsequently adjusted to a final concentration of 800 mM KOAc. […]"}, "nascent Pgk1-150": {"tested_on": "nascent Pgk1-150", "experiment": "crosslinking to ribosome-bound nascent chain", "assay_type": "binding, Saccharomyces cerevisiae", "settings": "wild type translation extract; BS3; compared with Pgk1-50", "excerpt": "as §1, §2"}, "nascent Pgk1-40": {"tested_on": "nascent Pgk1-40", "experiment": "crosslinking to ribosome-bound nascent chain", "assay_type": "binding, Saccharomyces cerevisiae", "settings": "wild type translation extract; BS3", "excerpt": "as §1, §2"}, "nascent Pgk1-45": {"tested_on": "nascent Pgk1-45", "experiment": "crosslinking to ribosome-bound nascent chain", "assay_type": "binding, Saccharomyces cerevisiae", "settings": "wild type translation extract; BS3", "excerpt": "as §1, §2"}, "nascent Pgk1-50": {"tested_on": "nascent Pgk1-50", "experiment": "crosslinking to ribosome-bound nascent chain", "assay_type": "binding, Saccharomyces cerevisiae", "settings": "wild type translation extract; BS3", "excerpt": "as §1, §2"}, "ribosomes": {"tested_on": "ribosomes", "experiment": "ribosome-binding assay", "set-up": "species or system Saccharomyces cerevisiae", "settings": "for fraction of Ssb ribosome-bound: total cell extract", "method": "Yeast strains were grown to early log phase on YPD, prior to harvest cycloheximide was added to a final concentration of 100 µg/ml, and subsequently cells were collected via centrifugation at 5000 g. Cell pellets were resuspended in ribosome-binding buffer (20 mM Hepes/KOH pH 7.4, 2 mM Mg(OAc)2, 120 mM KOAc, 100 µg/ml cycloheximide, 2 mM DTT, 1 mM PMSF, protease inhibitor mix) and total cell extracts were prepared by the glass beads method. After a clearing spin at 20.000 g, each 60 µl of the total glass beads extract (A260 between 80 and 100 mAU) was loaded onto a 90 µl sucrose cushion (25% sucrose, 20 mM Hepes/KOH pH 7.4, 120 mM KOAc, 2 mM Mg(OAc)2, 2 mM DTT, 1 mM PMSF, protease inhibitor mix). After centrifugation at 400.000 g at 4 °C for 25 min the cytosolic supernatant was collected and the ribosomal pellet was resuspended in 300 µl ribosome-binding buffer. Aliquots of the total cell extract, cytosolic supernatant, and resuspended ribosomal pellets were precipitated by addition of TCA (trichloroacetic acid) to a final concentration of 5%. TCA pellets were dissolved in SDS-sample buffer and were analyzed on 10% Tris-Tricine gels followed by immunoblotting."}, "[1]": {"settings": "Δssb1Δssb2 extract, purified Ssb1, 2 µM, added prior to translation"}}}
{"substance": "Ssb: ribosome-associated Hsp70 homolog of yeast, isoforms SSB1 and SSB2", "values": [{"measurement": "crosslinking of Ssb to nascent Pgk1 when RAC or Ssz1 is absent from ribosomes, reduced to", "setting": "nascent Pgk1-100; Fig. 1e set-up", "result": "< 1/6"}, {"measurement": "crosslink to nascent Pgk1-100", "setting": "nascent Pgk1-100; wild type translation extract, compared with Pgk1-50", "result": "more efficient crosslinks"}, {"measurement": "crosslink of Ssb to nascent Pgk1-100 upon adding purified Ssb", "setting": "nascent Pgk1-100; [1]", "result": "restored"}, {"measurement": "effect of added purified Ssb on crosslinking to the RAC subunits", "setting": "nascent Pgk1-100; [1]", "result": "strongly reduced"}, {"measurement": "crosslink of Ssb to nascent Pgk1-100, dependence on RAC", "setting": "nascent Pgk1-100; Δzuo1Δssz1Δssb1Δssb2 RNCs complemented with ribosome-free extracts", "result": "Only in the presence of wild type RAC nascent Pgk1-100 formed an efficient crosslink to Ssb"}, {"measurement": "crosslink to nascent Pgk1-150", "setting": "nascent Pgk1-150", "result": "more efficient crosslinks"}, {"measurement": "crosslink to nascent Pgk1-40", "setting": "nascent Pgk1-40", "result": "did not form crosslink products with Pgk1-40 or Pgk1-45"}, {"measurement": "crosslink to nascent Pgk1-45", "setting": "nascent Pgk1-45", "result": "did not form crosslink products with Pgk1-40 or Pgk1-45"}, {"measurement": "crosslink to nascent Pgk1-50", "setting": "nascent Pgk1-50", "result": "weak crosslink"}, {"measurement": "ribosome-binding of Ssb when RAC or Ssz1 is absent from ribosomes, reduced to", "setting": "ribosomes; in vitro translation system, Zuo1ΔN49, no Ssz1, or no Ssz1 and Zuo1", "result": "about 1/3"}, {"measurement": "fraction of Ssb ribosome-bound", "setting": "ribosomes; cells expressing RAC-∆N49", "result": "about 1/ 3"}, {"measurement": "fraction of Ssb ribosome-bound", "setting": "ribosomes; wild type, RAC-∆N8, or RAC-∆N16", "result": "About 2/3"}]}
